The record followed here is patent US20240342190A1, “METHODS FOR REDUCING ISCHEMIA-REPERFUSION INJURIES” (BioMimetix JV, LLC, priority 2023, published 2024).

A short description of data set [1]: Experiment 8: interaction of BMX-001 with t-PA (blood clot dissolution). Details: species or system rat. Conditions: blood clot dissolution, t-PA vs t-PA plus BMX-001. As for the experimental part:
Fresh arterial blood samples were collected from young male rats and distributed into 21 pre-weighed centrifuge tubes. After sitting at 37° C. for 3 hours, the blood clots were formed. The supernatant was removed from these tubes and then the tubes with blood clots were weighed. The weight of the blood clot was calculated (=the tube with blood clot-pre-weighed tube). Then, 1 ml saline, t-PA (1 mg/ml) or t-PA (1 mg/ml) plus BMX-001 (50 μg/ml) were added (n=7 for each group) and tubes placed in 37° C. dry incubator for 3 hours. The liquids were then removed from the tubes. The tubes with remaining blood clots were weighed again. The percentage of blood clot dissolved by t-PA was calculated.

The nature of data set [2]: Experiment 6: BMX-001 plasma and brain concentration measurement (LC/MS/MS). In kind it is in vivo, rat. As for the experimental part:
Young male Wistar rats (n=4) were subjected to 90 min of MCAO and 30 μg/kg of BMX-001 intra-carotid infusion following reperfusion. Blood and brain samples were harvested at 30 min after BMX-001 infusion, stored in −80° C. freezer, and measured using Liquid chromatography-tandem-mass spectroscopy (LC/MS/MS) analysis. Brain tissue was homogenized in water (1 g in 2 mL water). Then, […] or […], two Zr-silica beads (2.5 mm), […] 1% HFBA (heptafluorobutyric acid) in 30% acetonitrile/water+BMX-001-d8 (int. std.,50 nM), and […] of chloroform/isopropanol (4/1, v/v) was added to polypropylene tube and vigorously agitated in FastPrep (Thermo Savant) at speed 6 for 45 s, followed by centrifugation at 16,000 rcf for 5 min at room temperature. The […] aliquot of organic (lower) layer was transferred to polypropylene tube and evaporated to dryness by gentle stream of nitrogen. The dry residue was reconstituted into […] of mobile phase A, and […] injected into LC/MS/MS system. The LC/MS/MS analysis was performed on Agilent 1200 HPLC-AB/SCIEX 5500 QTrap MS/MS instrument. LC column: Phenomenex Kinetex 4×3 mm, C18 guard cartridge at 35° C.; mobile phase A: 0.05% HFBA, 10% acetonitrile, water; mobile phase B: 0.05% HFBA in acetonitrile; elution gradient: 0-1 min 0-70% B, 1-2 min 70% B, 2-2.1 min 70-100% B, 2.1-2.6 min 100% B, 2.6-2.7 min 100-0% B; run time: 4 min. MS/MS transitions: BMX-001 (3×HFBA) at m/z 857.3/599.7. Calibration samples in 2.4 (LOQ)—300 nM brain tissue or 0.47 (LOQ)—30 nM plasma concentration range were prepared by adding known amounts of BMX-001 into blank brain homogenate or plasma, and analyzed alongside study samples as a single analytical batch.

Data set [3] has as its system aged female Fisher 344 rats subjected to 90 min of MCAO. The data set is described as follows: Experiment 5: stroke outcome in aged female rats. In kind it is in vivo, rat. To be noted: for Neurologic score: median±IQR, p<0.001. As to the method: The rats were fasted overnight for glucose control. On the surgery day, they were anesthetized with 5% isoflurane in 30% oxygen balanced with nitrogen. The trachea was orally intubated, and both lungs were mechanically ventilated to maintain normocapnia. Isoflurane was reduced to 1.5% during the surgical procedure. A 22-gauge needle thermistor was percutaneously inserted beneath the temporalis muscle adjacent to the skull. The pericranial temperature was maintained at 37.0° C.±0.2° C. by a surface heat lamp. The tail artery was cannulated with PE 50 tubing (BD Intramedic™ Polyethylene Tubing, Sparks, MD, USA), and arterial blood pressure was continuously monitored. 50 IU of heparin was given via arterial line to prevent intra-arterial thrombosis. Arterial blood samples were collected pre, during, and after ischemia for blood gas, glucose, and hematocrit measurements.
Ischemic stroke was induced by transiently occluding the middle cerebral artery (MCAO) as previously reported.^23,24 Briefly, a midline cervical incision was made and the right common carotid artery […] was identified. The external and internal carotid arteries were dissected. […] The internal carotid artery (ICA) was dissected distally until the origin of the pterygopalatine artery was visualized. After surgical preparation, a 10 min interval was allowed for physiologic stabilization. […] The common carotid artery was re-opened, and a timer was started as the onset of cerebral ischemia.
After 90 min of MCAO, the filament was removed and a PE-10 tube (BD Intramedic™ Polyethylene Tubing, Sparks, MD, USA) was inserted into the ICA beyond the origin of the pterygopalatine artery. The vehicle or BMX-001 (30-50 μg/kg) solution (1 μl/g for both solutions, 250 μl for the 250 g rat) was slowly infused for 5 minutes via syringe pump. At the completion of intra-carotid infusion, the PE tube was removed and the ECA stump was permanently ligated. The tail artery catheter was removed and both the neck incision and tail incision were infiltrated with bupivacaine and closed with suture. Isoflurane was discontinued. Rats were disconnected from the ventilator when they attained spontaneous respiration and kept in a recovery cage. The tracheas were extubated after recovery of the righting reflex. They were in an O2 enriched environment (30% O2) for 1 h and then returned to the home cage.
Post-stroke neurologic deficits were assessed at day 7 and 28 using a standardized neurological scoring system.^27,28 General status, simple motor deficit, complex motor deficit, and sensory deficit were evaluated, including the ability of walking on a beam and climbing on the vertical screen. The total score each animal received was the sum of all four individual scores (0-48, 0=normal and 48=the worst score).
Upon the completion of functional tests, the animals were weighed, anesthetized with isoflurane, and decapitated. The brains were harvested, frozen at −20° C. in 2-methylbutane on dry ice, and stored in a −80° C. freezer. Serial quadruplicate 20-μm-thick coronal sections were cut using a Leica cryostat and mounted on the slides at 720-μm interval over the rostral-caudal extent of the brain. The sections were dried on a slide heater at 36° C., and stained with hematoxylin and eosin. A section from each […] interval was digitized with a video camera controlled by an image analyzer (MCID, the MicroComputer Imaging Device, Imaging Research Inc, St. Catharines, Ontario, Canada). […] With the observer blinded to the experimental condition, the following regions of interest (ROI) were outlined individually using an operator-controlled cursor, including non-infarcted ipsilateral cerebral cortex, non-infarcted ipsilateral subcortex, contralateral cerebral cortex, and contralateral subcortex. The area in each ROI (mm^2) was determined by automated counting of calibrated pixels and the volume (mm^3) was computed by the known interval between sections over the rostral-caudal extent of brain. […]

The mark [4] stands for this setting: 30 μg/kg intracarotid after 90 min MCAO, 30 min after infusion, n=4.

Take `CCCCOCC[n+]1ccccc1C1=C2C=CC3=[N+]2[Mn]24[n]5c1ccc5C(c1cccc[n+]1CCOCCCC)=C1C=CC(=[N+]12)C(c1cccc[n+]1CCOCCCC)=c1ccc([n]14)=C3c1cccc[n+]1CCOCCCC` [BMX-001, MnTnBuOE-2-PyP^5+]: the “Interaction of BMX-001 with t-PA, in words” value in data set [1] is recorded as “does not React with t-PA”. Moreover, in data set [2] (setting [4]), the “BMX-001 content in contralateral brain hemisphere” value was determined as 0.5 ± 0.3 nM, the “BMX-001 content in ipsilateral brain hemisphere” value was found to be 7.4 ± 8.6 nM and the “BMX-001 content in plasma” value was 11.3 ± 1.2 nM. For the same compound, in data set [2] (direct intracarotid infusion), the “BMX-001 concentration at the site of brain injury relative to the contralateral hemisphere” value stood at 15 fold. In data set [3] (10 minutes post-stroke, aged female Fisher 344 rats), the MAP came out at 90 ± 13 mmHg. Further, the “Infarct volume (FIG. 5, Panel C), in words” value in data set [3] (28 days after stroke) is recorded as “significantly reduced infarct volume”. Also, the “Reduction of infarct volume” value in data set [3] (28 days after stroke, vs vehicle) is 60%. For the same compound, in data set [3] (28 days, p=0.0010), the Subcortex infarct volume turned out to be 10±12 mm^3. In data set [3] (28 days, p=0.0037 vs vehicle), the Total infarct volume came out at 31±41 mm^3. Moreover, the Cortex infarct volume in data set [3] (28 days, p=0.0122 vs vehicle) came out at 21±32 mm^3. Moreover, the Neurologic score in data set [3] (day 7) turned out to be 4±4.75. Moreover, the “Neurologic functions (FIG. 5, Panel B), in words” value in data set [3] (day 7 and 28 post-stroke) is given as “significantly attenuated neurologic deficits”. Also, in data set [3] (day 7 post-stroke), the Body weight is given as 233±19 grams and the “Body weight loss from the baseline body weight” value was 8 grams. Moreover, the Neurologic score in data set [3] (day 28) turned out to be 4±4.75. Further, the “Rats died at post-stroke day 2 due to large infarct” value in data set [3] (of n=17) is recorded as “one”.
